# Laboratory results taken from the supplement of paper PMC12463676, “Small-molecule dissolution of stress granules by redox modulation benefits ALS models” (Nature Chemical Biology, 2025).
# Tests used:
# potassium arsenate = compound: O=[As]([O-])(O)O.[K+] [potassium arsenate]; assay: thermal stability z-score vs DMSO; higher = more thermally stabilized by treatment; conditions: HeLa; arsenate concentration 1 mM
# Method: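 Cellular thermal proteome profiling in HeLa cells treated with 1 mM arsenate for 1 h (DMSO pretreatment), heated to ten temperatures (37-66.3 °C). Soluble protein was quantified by TMT mass spectrometry relative to DMSO controls; the thermal stability score was transformed to a z-score; mean of n = 3 experiments.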
# lipoamide = compound: NC(=O)CCCCC1CCSS1 [lipoamide]; assay: as above; conditions: HeLa, lipoamide concentration 100 µM
# Method: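 Cellular thermal proteome profiling in HeLa cells. Cells were treated with 100 µM lipoamide for 1 h, with or without 1 mM arsenate for a further 1 h, then heated to ten temperatures (37-66.3 °C), and soluble protein was quantified by TMT mass spectrometry relative to 0.1% DMSO controls. The thermal stability score (sum of log2 fold changes minus the abundance score) was transformed to a z-score; mean of n = 3 experiments.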
# [1] = arsenate co-treatment: 1 mM arsenate 1 h
# 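Note: each temperature applied for 3 min, abundance score taken as mean log2 fold change at the two lowest temperatures, z-score obtained by mean subtraction and division by SD.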
# Sequence of UniProt Q8ND04 (Q8ND04 whole entry): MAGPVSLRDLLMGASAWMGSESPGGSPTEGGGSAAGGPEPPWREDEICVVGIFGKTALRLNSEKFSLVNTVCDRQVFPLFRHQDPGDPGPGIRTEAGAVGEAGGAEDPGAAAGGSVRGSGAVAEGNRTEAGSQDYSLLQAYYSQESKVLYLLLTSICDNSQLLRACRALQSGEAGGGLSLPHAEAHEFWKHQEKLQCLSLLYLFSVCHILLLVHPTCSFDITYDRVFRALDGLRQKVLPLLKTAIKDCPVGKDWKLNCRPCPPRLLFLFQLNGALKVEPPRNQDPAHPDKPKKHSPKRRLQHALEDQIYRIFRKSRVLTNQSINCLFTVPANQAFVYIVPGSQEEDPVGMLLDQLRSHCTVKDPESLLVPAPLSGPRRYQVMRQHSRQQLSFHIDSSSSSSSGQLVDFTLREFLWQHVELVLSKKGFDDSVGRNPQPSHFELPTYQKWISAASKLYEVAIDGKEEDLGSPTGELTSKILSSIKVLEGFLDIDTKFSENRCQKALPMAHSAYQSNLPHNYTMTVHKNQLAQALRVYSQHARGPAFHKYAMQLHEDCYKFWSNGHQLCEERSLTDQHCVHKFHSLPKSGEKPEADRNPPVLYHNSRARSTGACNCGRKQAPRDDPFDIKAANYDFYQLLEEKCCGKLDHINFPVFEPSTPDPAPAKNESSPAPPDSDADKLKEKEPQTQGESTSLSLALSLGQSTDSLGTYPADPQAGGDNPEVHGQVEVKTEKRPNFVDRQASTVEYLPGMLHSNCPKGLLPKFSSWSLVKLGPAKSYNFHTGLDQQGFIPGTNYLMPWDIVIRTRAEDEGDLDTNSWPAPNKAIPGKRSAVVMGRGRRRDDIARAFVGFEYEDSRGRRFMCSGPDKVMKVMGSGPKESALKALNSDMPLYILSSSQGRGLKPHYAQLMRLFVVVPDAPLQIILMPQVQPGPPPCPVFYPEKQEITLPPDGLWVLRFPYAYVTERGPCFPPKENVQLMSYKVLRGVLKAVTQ
# Sequence of UniProt O60264 (O60264 whole entry): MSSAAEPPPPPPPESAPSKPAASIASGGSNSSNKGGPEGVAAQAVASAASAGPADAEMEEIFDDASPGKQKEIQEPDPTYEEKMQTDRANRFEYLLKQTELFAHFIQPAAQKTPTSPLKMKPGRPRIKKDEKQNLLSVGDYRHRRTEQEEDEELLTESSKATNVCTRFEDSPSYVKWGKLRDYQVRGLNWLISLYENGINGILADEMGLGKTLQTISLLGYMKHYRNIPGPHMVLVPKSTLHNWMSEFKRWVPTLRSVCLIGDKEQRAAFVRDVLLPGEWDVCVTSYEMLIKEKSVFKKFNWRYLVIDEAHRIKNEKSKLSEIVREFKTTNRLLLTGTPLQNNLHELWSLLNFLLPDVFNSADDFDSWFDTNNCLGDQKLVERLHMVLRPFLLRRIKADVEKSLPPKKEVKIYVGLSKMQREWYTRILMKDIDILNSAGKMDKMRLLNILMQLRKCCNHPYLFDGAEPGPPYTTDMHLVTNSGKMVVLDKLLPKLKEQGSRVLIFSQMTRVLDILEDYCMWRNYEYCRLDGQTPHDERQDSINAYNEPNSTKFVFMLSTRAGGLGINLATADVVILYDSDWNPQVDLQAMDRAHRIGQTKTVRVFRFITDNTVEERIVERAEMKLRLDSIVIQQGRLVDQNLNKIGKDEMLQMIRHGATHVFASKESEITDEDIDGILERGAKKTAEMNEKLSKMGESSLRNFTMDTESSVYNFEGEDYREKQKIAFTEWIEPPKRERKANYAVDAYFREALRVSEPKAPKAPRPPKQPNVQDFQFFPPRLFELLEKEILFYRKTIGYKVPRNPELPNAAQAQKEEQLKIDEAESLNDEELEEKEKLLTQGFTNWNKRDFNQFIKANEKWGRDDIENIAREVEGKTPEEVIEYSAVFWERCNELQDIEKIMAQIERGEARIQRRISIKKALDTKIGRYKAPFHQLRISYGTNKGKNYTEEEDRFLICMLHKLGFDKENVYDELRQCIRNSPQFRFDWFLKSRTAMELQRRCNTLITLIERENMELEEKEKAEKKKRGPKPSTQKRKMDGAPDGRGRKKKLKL
# Sequence of UniProt Q9NVC3 (Q9NVC3 whole entry): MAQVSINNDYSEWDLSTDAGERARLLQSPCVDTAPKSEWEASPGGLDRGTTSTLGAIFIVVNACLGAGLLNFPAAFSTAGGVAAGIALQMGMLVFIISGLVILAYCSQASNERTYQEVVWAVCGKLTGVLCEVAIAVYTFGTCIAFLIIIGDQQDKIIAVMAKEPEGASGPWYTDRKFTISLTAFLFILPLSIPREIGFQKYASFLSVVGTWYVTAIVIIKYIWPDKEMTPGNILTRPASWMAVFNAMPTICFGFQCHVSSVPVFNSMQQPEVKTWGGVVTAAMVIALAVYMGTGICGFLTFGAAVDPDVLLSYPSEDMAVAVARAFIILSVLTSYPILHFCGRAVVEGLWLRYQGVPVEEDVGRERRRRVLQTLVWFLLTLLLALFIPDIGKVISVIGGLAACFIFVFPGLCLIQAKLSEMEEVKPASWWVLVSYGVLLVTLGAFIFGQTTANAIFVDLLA
# Sequence of UniProt P51532 (P51532 whole entry): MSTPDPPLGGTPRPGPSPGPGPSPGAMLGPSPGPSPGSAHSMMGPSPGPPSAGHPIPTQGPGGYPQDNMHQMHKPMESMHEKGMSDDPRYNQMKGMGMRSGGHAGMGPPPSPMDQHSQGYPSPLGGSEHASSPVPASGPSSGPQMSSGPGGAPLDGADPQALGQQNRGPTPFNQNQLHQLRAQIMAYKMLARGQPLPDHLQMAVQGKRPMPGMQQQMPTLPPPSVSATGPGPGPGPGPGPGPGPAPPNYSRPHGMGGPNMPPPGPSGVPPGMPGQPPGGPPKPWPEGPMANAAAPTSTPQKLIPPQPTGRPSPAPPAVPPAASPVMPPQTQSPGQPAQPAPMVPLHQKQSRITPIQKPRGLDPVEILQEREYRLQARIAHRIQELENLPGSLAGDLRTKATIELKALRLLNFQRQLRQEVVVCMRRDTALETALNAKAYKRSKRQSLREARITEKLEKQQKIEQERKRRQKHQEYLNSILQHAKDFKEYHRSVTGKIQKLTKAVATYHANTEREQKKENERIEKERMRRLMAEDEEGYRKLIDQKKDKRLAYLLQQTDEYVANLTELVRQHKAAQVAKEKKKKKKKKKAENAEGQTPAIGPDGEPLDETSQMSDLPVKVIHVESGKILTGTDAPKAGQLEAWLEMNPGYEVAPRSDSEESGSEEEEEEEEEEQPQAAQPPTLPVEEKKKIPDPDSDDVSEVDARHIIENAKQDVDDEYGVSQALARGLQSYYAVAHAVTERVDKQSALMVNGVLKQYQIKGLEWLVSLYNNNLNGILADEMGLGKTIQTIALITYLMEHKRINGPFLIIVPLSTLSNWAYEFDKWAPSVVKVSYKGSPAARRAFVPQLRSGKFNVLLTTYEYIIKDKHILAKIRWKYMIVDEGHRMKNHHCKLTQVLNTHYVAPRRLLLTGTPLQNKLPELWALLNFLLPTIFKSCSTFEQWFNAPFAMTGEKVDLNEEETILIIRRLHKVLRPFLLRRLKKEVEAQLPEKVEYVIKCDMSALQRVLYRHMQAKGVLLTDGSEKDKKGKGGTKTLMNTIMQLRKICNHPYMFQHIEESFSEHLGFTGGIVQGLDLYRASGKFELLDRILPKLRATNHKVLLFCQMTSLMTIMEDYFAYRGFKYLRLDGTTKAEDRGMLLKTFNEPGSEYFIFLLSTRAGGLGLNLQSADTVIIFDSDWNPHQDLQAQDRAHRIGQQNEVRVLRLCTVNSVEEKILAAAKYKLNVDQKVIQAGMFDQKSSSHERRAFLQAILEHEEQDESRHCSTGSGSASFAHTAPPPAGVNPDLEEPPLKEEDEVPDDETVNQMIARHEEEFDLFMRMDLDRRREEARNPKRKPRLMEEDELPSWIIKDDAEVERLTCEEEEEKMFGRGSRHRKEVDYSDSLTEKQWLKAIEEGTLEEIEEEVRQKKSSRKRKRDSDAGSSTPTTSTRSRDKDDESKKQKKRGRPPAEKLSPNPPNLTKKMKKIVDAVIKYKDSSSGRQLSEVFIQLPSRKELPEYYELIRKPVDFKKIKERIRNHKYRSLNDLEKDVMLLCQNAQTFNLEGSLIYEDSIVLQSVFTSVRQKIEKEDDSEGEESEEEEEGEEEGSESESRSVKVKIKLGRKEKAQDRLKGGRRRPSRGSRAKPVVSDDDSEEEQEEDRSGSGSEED
# Sequence of UniProt Q8N1S5 (Q8N1S5 whole entry): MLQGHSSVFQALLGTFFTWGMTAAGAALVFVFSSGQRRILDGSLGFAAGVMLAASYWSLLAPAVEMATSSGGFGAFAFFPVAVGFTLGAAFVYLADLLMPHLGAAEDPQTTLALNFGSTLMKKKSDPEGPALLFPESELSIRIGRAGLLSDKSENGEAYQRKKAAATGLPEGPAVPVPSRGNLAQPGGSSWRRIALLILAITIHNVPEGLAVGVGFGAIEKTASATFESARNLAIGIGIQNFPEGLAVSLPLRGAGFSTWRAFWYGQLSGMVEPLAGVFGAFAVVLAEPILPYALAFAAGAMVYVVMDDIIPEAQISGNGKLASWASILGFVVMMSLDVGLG
# Sequence of UniProt Q9HAB3 (Q9HAB3 whole entry): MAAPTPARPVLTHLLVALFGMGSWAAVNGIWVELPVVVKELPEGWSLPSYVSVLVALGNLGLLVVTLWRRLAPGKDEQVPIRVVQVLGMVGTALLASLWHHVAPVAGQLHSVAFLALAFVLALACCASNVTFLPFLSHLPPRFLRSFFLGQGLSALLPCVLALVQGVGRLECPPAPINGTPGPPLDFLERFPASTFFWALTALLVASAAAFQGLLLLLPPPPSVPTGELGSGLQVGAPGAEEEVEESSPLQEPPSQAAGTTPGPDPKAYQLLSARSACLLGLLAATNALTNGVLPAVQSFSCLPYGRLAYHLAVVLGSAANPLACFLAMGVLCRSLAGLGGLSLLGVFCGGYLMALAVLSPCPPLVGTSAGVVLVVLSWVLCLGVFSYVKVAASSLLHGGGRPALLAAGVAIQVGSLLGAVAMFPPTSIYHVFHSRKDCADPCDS
# Sequence of UniProt Q96EX1 (Q96EX1 whole entry): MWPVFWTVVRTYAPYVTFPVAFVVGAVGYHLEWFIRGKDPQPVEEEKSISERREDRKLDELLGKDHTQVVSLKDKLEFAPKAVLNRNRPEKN
Target,thermal stability z-score (potassium arsenate),thermal stability z-score (lipoamide; [1]),thermal stability z-score (lipoamide; arsenate co-treatment: none)
SLC38A5 (UniProt Q8WUX1),-0.311,0.333,-0.181
SLC38A7 (UniProt Q9NVC3),-0.442,-0.543,-0.964
SLC38A10 (UniProt Q9HBR0),-0.0408,0.639,0.226
SLC39A6 (UniProt Q13433),0.868,-0.119,0.454
SLC39A7 (UniProt Q92504),-0.00591,-1.65,-0.943
SLC39A10 (UniProt Q9ULF5),0.177,0.0305,-0.329
SLC39A11 (UniProt Q8N1S5),0.429,0.867,0.694
SLC39A14 (UniProt Q15043),-0.236,-0.0157,-0.137
SLC43A2 (UniProt Q8N370),-1.03,0.846,1.05
SLC43A3 (UniProt Q8NBI5),0.807,0.34,0.53
SLC44A1 (UniProt Q8WWI5),-0.452,0.347,-0.0965
SLC44A2 (UniProt Q8IWA5),-0.517,-0.0733,-0.171
SLC46A1 (UniProt Q96NT5),-1.24,-0.375,0.408
SLC52A2 (UniProt Q9HAB3),-0.17,0.194,0.164
SLCO4A1 (UniProt Q96BD0),0.0663,0.0123,-0.101
SLFN5 (UniProt Q08AF3),-0.568,-0.884,-1.21
SLIRP (UniProt Q9GZT3),0.123,-0.917,-0.197
SLK (UniProt Q9H2G2),-0.419,0.413,0.153
SLMAP (UniProt Q14BN4),1.45,-0.467,-0.173
SLTM (UniProt Q9NWH9),-0.561,0.712,-0.493
SLU7 (UniProt O95391),-0.0775,-0.353,-0.364
SMAD2 (UniProt Q15796),-1.26,-0.492,0.118
SMAD4 (UniProt Q13485),-0.746,-0.233,-0.519
SMAP1 (UniProt Q8IYB5),-0.139,-0.131,-0.152
SMAP2 (UniProt Q8WU79),-1.45,-1.95,-0.774
SMAP (UniProt O00193),-0.154,0.384,0.48
SMARCA2 (UniProt P51531),-0.174,-0.0738,-0.0901
SMARCA4 (UniProt P51532),-0.673,0.212,0.272

Target,thermal stability z-score (potassium arsenate),thermal stability z-score (lipoamide; [1]),thermal stability z-score (lipoamide; arsenate co-treatment: none)
SMARCA5 (UniProt O60264),-0.922,0.76,1.44
SMARCAD1 (UniProt Q9H4L7),-0.159,-1.27,-0.234
SMARCAL1 (UniProt Q9NZC9),-0.0552,0.0881,-0.0213
SMARCB1 (UniProt Q12824),-0.198,-0.25,-0.186
SMARCC1 (UniProt Q92922),-0.204,0.791,1.14
SMARCC2 (UniProt Q8TAQ2),0.305,1.35,1.85
SMARCD1 (UniProt Q96GM5),-0.164,-0.0223,0.0841
SMARCD2 (UniProt Q92925),-0.0687,0.132,0.101
SMARCE1 (UniProt Q969G3),0.125,1.96,1.55
SMC1A (UniProt Q14683),-0.186,0.323,0.28
SMC2 (UniProt O95347),0.802,0.528,0.546
SMC3 (UniProt Q9UQE7),-0.181,0.0797,0.288
SMC4 (UniProt Q9NTJ3),0.763,0.387,1.46
SMC5 (UniProt Q8IY18),1.83,0.427,-0.175
SMC6 (UniProt Q96SB8),0.067,-0.138,0.113
SMCHD1 (UniProt A6NHR9),-0.528,-0.13,-0.0876
SMG1 (UniProt Q96Q15),0.119,-0.284,-0.117
SMG5 (UniProt Q9UPR3),-0.104,-0.0554,0.0814
SMG7 (UniProt Q92540),-0.0408,-0.0753,-0.0219
SMG8 (UniProt Q8ND04),0.575,-1.73,-0.705
SMG9 (UniProt Q9H0W8),-0.274,-0.596,-0.49
SMIM12 (UniProt Q96EX1),0.0454,-0.371,0.35
SMN1 (UniProt Q16637),-0.434,0.304,0.798
SMNDC1 (UniProt O75940),-0.5,-0.102,-0.117
SMOC1 (UniProt Q9H4F8),-1.55,-0.587,-0.458
SMPD2 (UniProt O60906),-0.382,-0.297,-0.186
SMPD4 (UniProt Q9NXE4),1.11,0.624,0.149
